Measured values from patent publication US9034894B2, “Derivate, preparation method and use of 10-methoxycamptothecin” (NORTHEAST FORESTRY UNIVERSITY, priority 2011, dated 2015).

System: ovarian cancer cell line 2774
Assay: thiazole blue colorimetric method, half inhibitory concentration on ovarian cancer cell line 2774
Type: cell-based

Compared with `CCC(=O)OC1(CC)C(=O)OCc2c1cc1n(c2=O)Cc2cc3cc(OC)ccc3nc2-1` (stereo not shown) [10-methoxycamptothecin-20-O-propionate], `CCC1(OC(=O)[C@H](C)NC(=O)OC(C)(C)C)C(=O)OCc2c1cc1n(c2=O)Cc2cc3cc(OC)ccc3nc2-1` (stereo partly drawn) [10-methoxycamptothecin-20-O—(N′-t-butoxycarbonyl)-L-alanine ester] is 18-fold lower in IC50: 842 ± 50.1 µM for the first, 46.7 ± 21.7 µM for the second. The second is the more potent here.

Going from `CCC1(OC(=O)[C@H](Cc2ccccc2)NC(=O)OC(C)(C)C)C(=O)OCc2c1cc1n(c2=O)Cc2cc3cc(OC)ccc3nc2-1` (stereo partly drawn) [10-methoxycamptothecin-20-O—(N′-t-butoxycarbonyl)-L-phenylalanine ester] to `CCC1(OC(=O)[C@@H](NC(=O)OC(C)(C)C)C(C)C)C(=O)OCc2c1cc1n(c2=O)Cc2cc3cc(OC)ccc3nc2-1` (stereo partly drawn) [10-methoxycamptothecin-20-O—(N′-t-butoxycarbonyl)-L-valine ester], the IC50 rises from 394 ± 21.7 µM to 1970 ± 93.6 µM (5-fold). The first is the more potent here.
